Assay results reported in US10106556B2, “Heterocyclic compound” (TAKEDA PHARMACEUTICAL COMPANY LIMITED, priority 2015, dated 2018).

Molecular target: T1, His-hMAGL (recombinant polyhistidine tagged human MAGL protein) (Homo sapiens, UniProt Q99685)
T1 construct: made in house; host or cells: E. coli BL21(DE3)
T1 sequence (Q99685 1-303): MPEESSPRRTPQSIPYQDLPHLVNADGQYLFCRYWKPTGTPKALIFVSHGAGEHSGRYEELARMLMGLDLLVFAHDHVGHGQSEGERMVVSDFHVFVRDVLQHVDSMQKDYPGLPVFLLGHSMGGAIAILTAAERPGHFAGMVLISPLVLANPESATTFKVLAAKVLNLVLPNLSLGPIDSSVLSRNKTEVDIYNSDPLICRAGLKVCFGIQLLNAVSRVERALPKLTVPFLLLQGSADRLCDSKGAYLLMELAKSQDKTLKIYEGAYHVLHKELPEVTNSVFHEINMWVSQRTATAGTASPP
Experiment: Measurement of MAGL inhibitory activity (arachidonic acid production from 2-arachidonylglycerol, RapidFire-mass spectrometry)
Assay type: biochemical
Details: MAGL inhibitory rate at 10 μM test compound; 60 min preincubation with His-hMAGL, 2-arachidonylglycerol substrate, 10 min reaction at room temperature
Summary of the method: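 Recombinant His-tagged human MAGL converted 2-arachidonylglycerol to arachidonic acid. Reactions received acetonitrile with 3 μM arachidonic acid-d8 as internal standard, and product was quantified by RapidFire SPE (C4) with negative-mode SRM mass spectrometry. Percent inhibition was calculated against compound-free and enzyme-free controls.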

| Structure (SMILES) | inhibition at 10 µM |
| --- | --- |
| CC(C)(Oc1ccc(F)cc1F)C1CN(C(=O)c2cc3c(cc2F)OCC(=O)N3)C1 [Example 308, 6-((3-(2-(2,4-difluorophenoxy)propan-2-yl)azetidin-1-yl)carbonyl)-7-fluoro-2H-1,4-benzoxazin-3 (4H)-one] | 104% |
| Cc1cc(OCC2CN(C(=O)c3cc4c(cc3F)OCC(=O)N4)C2)n(-c2ccccn2)n1 [Example 178, 7-fluoro-6-((3-(((3-methyl-1-(pyridin-2-yl)-1H-pyrazol-5-yl)oxy)methyl)azetidin-1-yl)carbonyl)-2H-1,4-benzoxazin-3(4H)-one] | 94% |
| O=C1COc2ccc(C(=O)N3CCC(COc4cccc5[nH]ncc45)CC3)cc2N1 [Example 64, 6-((4-((1H-indazol-4-yloxy)methyl)piperidin-1-yl)carbonyl)-2H-1,4-benzoxazin-3(4H)-one] | 101% |
| O=C1COc2ccc(C(=O)N3CC(OCc4ccc(F)cc4Cl)C3)cc2N1 [Example 323, 6-((3-((2-chloro-4-fluorobenzyl)oxy)azetidin-1-yl)carbonyl)-2H-1,4-benzoxazin-3(4H)-one] | 99% |
| O=C1COc2cc(F)c(C(=O)N3CC(COCc4ccccc4Cl)C3)cc2N1 [Example 148, 6-((3-(((2-chlorobenzyl)oxy)methyl)azetidin-1-yl)carbonyl)-7-fluoro-2H-1,4-benzoxazin-3(4H)-one] | 102% |
| O=C1COc2cc(F)c(C(=O)N3CCC(COc4cccc5ccnn45)CC3)cc2N1 [Example 275, 7-fluoro-6-((4-((pyrazolo[1,5-a]pyridin-7-yloxy)methyl)piperidin-1-yl)carbonyl)-2H-1,4-benzoxazin-3(4H)-one] | 99% |
| O=C1COc2ccc(C(=O)N3CC(COc4ccc(F)cc4Cl)C3)cc2N1 [Example 78, 6-((3-((2-chloro-4-fluorophenoxy)methyl)azetidin-1-yl)carbonyl)-2H-1,4-benzoxazin-3(4H)-one] | 100% |
| O=C1COc2cc(F)c(C(=O)N3CC(OCc4ccc5scnc5c4)C3)cc2N1 [Example 344, 6-((3-(1,3-benzothiazol-5-ylmethoxy)azetidin-1-yl)carbonyl)-7-fluoro-2H-1,4-benzoxazin-3(4H)-one] | 99% |
| CC(Oc1ccc(F)cc1F)C1CCN(C(=O)c2cc3c(cc2F)OCC(=O)N3)CC1 (stereo not drawn) [Example 294, 6-((4-(1-(2,4-difluorophenoxy)ethyl)piperidin-1-yl)carbonyl)-7-fluoro-2H-1,4-benzoxazin-3(4H)-one] | 99% |
| O=C1COc2ccc(C(=O)N3CCC(F)(COc4ccc(F)cc4Cl)CC3)cc2N1 [Example 27, 6-((4-((2-chloro-4-fluorophenoxy)methyl)-4-fluoropiperidin-1-yl)carbonyl)-2H-1,4-benzoxazin-3(4H)-one] | 101% |
| O=C1COc2cc(F)c(C(=O)N3CC(COc4ccc(OCC(F)(F)F)cc4)C3)cc2N1 [Example 114, 7-fluoro-6-((3-((4-(2,2,2-trifluoroethoxy)phenoxy)methyl)azetidin-1-yl)carbonyl)-2H-1,4-benzoxazin-3(4H)-one] | 99% |

The remaining lines, values ahead:

| inhibition at 10 µM | Structure (SMILES) |
| --- | --- |
| 102% | O=C1COc2cc(F)c(C(=O)N3CC(COc4ccc(-c5ccnc(F)c5)cc4F)C3)cc2N1 [Example 240, 7-fluoro-6-((3-((2-fluoro-4-(2-fluoropyridin-4-yl)phenoxy)methyl)azetidin-1-yl)carbonyl)-2H-1,4-benzoxazin-3(4H)-one] |
| 96% | Cc1cc2c(cc1C(=O)N1CC(COc3ccc(F)cc3Cl)C1)NC(=O)CO2 [Example 88, 6-((3-((2-chloro-4-fluorophenoxy)methyl)azetidin-1-yl)carbonyl)-7-methyl-2H-1,4-benzoxazin-3 (4H)-one] |
| 102% | O=C1COc2cc(F)c(C(=O)N3CC(COCc4ccc(Cl)cc4)C3)cc2N1 [Example 147, 6-((3-(((4-chlorobenzyl)oxy)methyl)azetidin-1-yl)carbonyl)-7-fluoro-2H-1,4-benzoxazin-3(4H)-one] |
| 100% | N#Cc1ccc(OCC2CN(C(=O)c3cc4c(cc3F)OCC(=O)N4)C2)cc1Cl [Example 138, 2-chloro-4-((1-((7-fluoro-3-oxo-3,4-dihydro-2H-1,4-benzoxazin-6-yl)carbonyl)azetidin-3-yl)methoxy)benzonitrile] |
| 101% | Cc1nc(C)c(-c2cc(Cl)ccc2OCC2CN(C(=O)c3cc4c(cc3F)OCC(=O)N4)C2)s1 [Example 268, 6-((3-((4-chloro-2-(2,4-dimethyl-1,3-thiazol-5-yl)phenoxy)methyl)azetidin-1-yl)carbonyl)-7-fluoro-2H-1,4-benzoxazin-3(4H)-one] |
| 102% | O=C1COc2cc(F)c(C(=O)N3CC(COc4ccc(Cl)cc4-c4ccccn4)C3)cc2N1 [Example 189, 6-((3-((4-chloro-2-(pyridin-2-yl)phenoxy)methyl)azetidin-1-yl)carbonyl)-7-fluoro-2H-1,4-benzoxazin-3(4H)-one] |
| 102% | O=C1COc2cc(F)c(C(=O)N3CC(COc4c(Cl)cccc4Cl)C3)cc2N1 [Example 122, 6-((3-((2,6-dichlorophenoxy)methyl)azetidin-1-yl)carbonyl)-7-fluoro-2H-1,4-benzoxazin-3(4H)-one] |
| 101% | O=C1COc2cc(F)c(C(=O)N3CC(COc4ccc(-c5ccncc5Cl)cc4F)C3)cc2N1 [Example 243, 6-((3-((4-(3-chloropyridin-4-yl)-2-fluorophenoxy)methyl)azetidin-1-yl)carbonyl)-7-fluoro-2H-1,4-benzoxazin-3(4H)-one] |
| 102% | O=C1COc2cc(F)c(C(=O)N3CC(COc4ccc(Cl)cc4-c4ccc5c(c4)CCO5)C3)cc2N1 [Example 221, 6-((3-((4-chloro-2-(2,3-dihydro-1-benzofuran-5-yl)phenoxy)methyl)azetidin-1-yl)carbonyl)-7-fluoro-2H-1,4-benzoxazin-3(4H)-one] |
| 101% | Cc1nn(C)cc1-c1ccc(OCC2CN(C(=O)c3cc4c(cc3F)OCC(=O)N4)C2)c(F)c1 [Example 249, 6-((3-((4-(1,3-dimethyl-1H-pyrazol-4-yl)-2-fluorophenoxy)methyl)azetidin-1-yl)carbonyl)-7-fluoro-2H-1,4-benzoxazin-3(4H)-one] |
| 103% | O=C1COc2cc(F)c(C(=O)N3CC(COc4ccc(C(F)(F)F)cc4Cl)C3)cc2N1 [Example 116, 6-((3-((2-chloro-4-(trifluoromethyl)phenoxy)methyl)azetidin-1-yl)carbonyl)-7-fluoro-2H-1,4-benzoxazin-3(4H)-one] |
| 99% | O=C1COc2cc(F)c(C(=O)N3CC(COc4ccc(-c5ccc6c(c5)CCO6)cc4F)C3)cc2N1 [Example 257, 6-((3-((4-(2,3-dihydro-1-benzofuran-5-yl)-2-fluorophenoxy)methyl)azetidin-1-yl)carbonyl)-7-fluoro-2H-1,4-benzoxazin-3(4H)-one] |
| 98% | O=C1COc2cc(F)c(C(=O)N3CC(COc4ccc(-c5ccc(C(F)(F)F)nc5)cc4F)C3)cc2N1 [Example 256, 7-fluoro-6-((3-((2-fluoro-4-(6-(trifluoromethyl)pyridin-3-yl)phenoxy)methyl)azetidin-1-yl)carbonyl)-2H-1,4-benzoxazin-3(4H)-one] |
